Measurements published in patent US7135466B2 (Kirin Beer Kabushiki Kaisha, priority 1999, dated 2006).
pIC50: −log10 of the molar value. Where two headings read alike, the source gives them in different places.

Target: T1, PDGF-Ra (Homo sapiens, UniProt P16234)
T1 construct: host or cells: G-292 human osteosarcoma cells
Assay: Inhibitory activity against PDGF-Ra phosphorylation by PDGF-AA stimulation using G292
Format: cell-based
Conditions: for pIC50: > means inhibition at indicated concentration not more than 50%, < and << not less than 50%, read-out: PDGF (E) IC50; for inhibition at 0.1 µM: G292, at 100 nM, read-out: PDGF (E) inhibition (%) at 100 nM
Procedure: Measurement of Inhibitory Activity Against PDGF-Ra Phosphorylation by PDGF-AA Stimulation Using G292
G-292 human osteosarcoma cells (Dainippon Pharmaceutical Co. Ltd.) were cultured in a DMEM medium (Dainippon Pharmaceutical Co. Ltd.) containing 10% FBS within an incubator containing 5% carbon dioxide until 80% confluent, and the cells were planted at 3×10^4 cells per well in 96-well flat-bottom plates in the same medium containing 0.1% FBS. After cultivation at 37° C. overnight, a solution of a test compound in dimethyl sulfoxide was added to each well, and a reaction was allowed to proceed at 37° C. for one hr.
After the reaction of the test compound, PDGF-AA (Upstate) was added to 50 ng/ml, and the cells were stimulated at 37° C. for 5 min. Thereafter, the cells were solubilized and shaken at room temperature for 20 min.
This solubilized cell solution was transferred to a 96-well plate coated with aniti-phosphotyrosine antibody PY-20, and a reaction was allowed to proceed at 4° C. overnight. Anti-PDGF-Ra (c-20) (Santa Cruz) was added as a primary antibody, and a reaction was allowed to proceed for one hr. GAR (Anti-rabbit Ig, horseradish peroxidase, Amersham) was then added as a secondary antibody, and a reaction was allowed to proceed for one hr. Color development was carried out using a color development kit for peroxidase (Sumitomo Bakelite Co., Ltd.), and the absorbance was measured at 450 nm.

[1] = figure within parentheses in >100( )

T1 sequence (P16234 24-1089): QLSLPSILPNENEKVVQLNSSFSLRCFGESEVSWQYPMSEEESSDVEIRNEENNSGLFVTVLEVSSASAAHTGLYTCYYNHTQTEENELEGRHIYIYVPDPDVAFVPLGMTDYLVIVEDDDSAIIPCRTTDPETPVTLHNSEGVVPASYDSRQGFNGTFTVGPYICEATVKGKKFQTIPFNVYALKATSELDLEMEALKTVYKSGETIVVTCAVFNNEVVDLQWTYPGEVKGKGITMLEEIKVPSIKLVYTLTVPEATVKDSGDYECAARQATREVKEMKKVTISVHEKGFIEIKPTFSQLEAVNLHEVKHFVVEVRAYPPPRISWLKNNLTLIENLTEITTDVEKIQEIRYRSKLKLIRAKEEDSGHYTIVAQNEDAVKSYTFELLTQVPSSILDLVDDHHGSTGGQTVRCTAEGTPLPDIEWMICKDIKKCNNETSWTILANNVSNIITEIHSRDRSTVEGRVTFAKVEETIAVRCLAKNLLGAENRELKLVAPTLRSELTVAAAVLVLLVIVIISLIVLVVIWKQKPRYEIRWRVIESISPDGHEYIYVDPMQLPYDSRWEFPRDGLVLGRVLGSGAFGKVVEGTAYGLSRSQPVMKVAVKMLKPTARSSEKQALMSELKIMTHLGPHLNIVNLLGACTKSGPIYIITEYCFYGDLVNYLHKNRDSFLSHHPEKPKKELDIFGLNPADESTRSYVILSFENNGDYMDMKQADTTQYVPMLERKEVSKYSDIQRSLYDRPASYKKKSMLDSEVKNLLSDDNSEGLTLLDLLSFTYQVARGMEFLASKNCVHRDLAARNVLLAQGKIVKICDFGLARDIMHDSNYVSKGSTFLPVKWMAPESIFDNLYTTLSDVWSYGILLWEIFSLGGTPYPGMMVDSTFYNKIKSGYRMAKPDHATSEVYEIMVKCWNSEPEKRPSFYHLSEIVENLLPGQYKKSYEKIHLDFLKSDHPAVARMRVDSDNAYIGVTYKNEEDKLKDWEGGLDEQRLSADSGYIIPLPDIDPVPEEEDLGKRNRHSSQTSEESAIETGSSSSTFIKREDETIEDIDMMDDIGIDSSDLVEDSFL

pIC50 (Pharmacological Test Example 1)	inhibition at 0.1 µM (figure in parentheses in >100( ))	pIC50	inhibition at 0.1 µM [1]	SMILES
7.68	–	–	–	COc1cc2ncnc(Oc3ccc(NC(=O)OC(c4ccccc4)C(C)C)cc3)c2cc1OC (stereo not shown) [Example 198, 2-Methyl-1-phenylpropyl N-{4-[(6,7-dimethoxy-4-quinazolinyl)oxy]phenyl}carbamate]
< 7.00	–	–	–	COc1cc2nccc(Oc3cc(C)c(NC(=O)OC(C)c4cccc(N(C)C)c4)cc3C)c2cc1OC (stereo not shown) [Example 201, 1-[3-(Dimethylamino)phenyl]ethyl N-{4-[(6,7-dimethoxy-4-quinolyl)oxy]-2,5-dimethylphenyl}-carbamate]
7.11	–	–	–	COc1cc2nccc(Oc3cc(C)c(NC(=O)OCCOc4ccccc4F)cc3C)c2cc1OC [Example 205, 2-(2-Fluorophenoxy)ethyl N-{4-[(6,7-dimethoxy-4-quinolyl)oxy]-2,5-dimethylphenyl}carbamate]
< 7.00	–	–	–	COc1cc2nccc(Oc3cc(C)c(NC(=O)OCCOc4cccc(F)c4)cc3C)c2cc1OC [Example 209, 2-(3-Fluorophenoxy)ethyl N-{4-[(6,7-dimethoxy-4-quinolyl)oxy]-2,5-dimethylphenyl}carbamate]
> 8.00	–	–	–	COc1cc2nccc(Oc3ccc(NC(=O)OCCC4CCCCC4)cc3)c2cc1OC [Example 353, 2-Cyclohexylethyl N-{4-[(6,7-dimethoxy-4-quinolyl)oxy]phenyl}carbamate]
7.18	–	–	–	COc1cc2nccc(Oc3cc(C)c(NC(=O)OCC4CC4)cc3C)c2cc1OC [Example 381, Cyclopropylmethyl N-{4-[(6,7-dimethoxy-4-quinolyl)oxy]-2,5-dimethylphenyl}carbamate]
< 7.00	37%	–	–	COc1cc2ncnc(Oc3ccc(NC(=O)OCC4CC4)c(Cl)c3)c2cc1OC [Example 384, Cyclopropylmethyl N-{2-chloro-4-[(6,7-dimethoxy-4-quinazolinyl)oxy]phenyl}carbamate]
7.29	–	–	–	COc1cc2ncnc(Oc3ccc(NC(=O)OCC4CCC4)c(Cl)c3)c2cc1OC [Example 389, Cyclobutylmethyl N-{2-chloro-4-[(6,7-dimethoxy-4-quinazolinyl)oxy]phenyl}carbamate]
–	–	< 7.00	27%	COc1cc2nccc(Oc3cc(C)c(NC(=O)OCCCN4CCCCC4)cc3C)c2cc1OC [Example 414, 3-Piperidinopropyl N-{4-[(6,7-dimethoxy-4-quinolyl)oxy]-2,5-dimethylphenyl}carbamate]
–	–	< 7.00	49%	COc1cc2nccc(Oc3ccc(NC(=O)ON4C(=O)c5ccccc5C4=O)cc3)c2cc1OC [Example 416, 1,3-Dioxo-2,3-dihydro-1H-2-isoindolyl N-{4-[(6,7-dimethoxy-4-quinolyl)oxy]phenyl}carbamate]
–	–	< 7.00	42%	COc1cc2nccc(Oc3cc(C)c(NC(=O)OCN4C(=O)c5ccccc5C4=O)cc3C)c2cc1OC [Example 417, (1,3-Dioxo-2,3-dihydro-1H-2-isoindolyl)methyl N-{4-[(6,7-dimethoxy-4-quinolyl)oxy]-2,5-dimethylphenyl}carbamate]
–	–	< 7.00	47%	COc1cc2nccc(Oc3cc(C)c(NC(=O)OCCN4C(=O)c5ccccc5C4=O)cc3C)c2cc1OC [Example 419, 2-(1,3-Dioxo-2,3-dihydro-1H-2-isoindolyl)ethyl N-{4-[(6,7-dimethoxy-4-quinolyl)oxy]-2,5-dimethylphenyl}carbamate]
–	–	7.15	–	CCCC(CCN(CC)CC)OC(=O)Nc1ccc(Oc2ccnc3cc(OC)c(OC)cc23)cc1 (stereo not shown) [Example 441, 1-[2-(Diethylamino)ethyl]butyl N-{4-[(6,7-dimethoxy-4-quinolyl)oxy]phenyl}carbamate]
–	–	7.11	–	COc1cc2nccc(Oc3ccc(NC(=O)OC(C#N)c4ccccc4)c(C)c3C)c2cc1OC (stereo not shown) [Example 455, Cyano(phenyl)methyl N-{4-[(6,7-dimethoxy-4-quinolyl)oxy]-2,3-dimethylphenyl}carbamate]
–	–	7.25	–	COc1cc2ncnc(Oc3ccc(NC(=O)OC4CCCN(C)C4)cc3)c2cc1OC (stereo not shown) [Example 465, 1-Methyl-3-piperidyl N-{4-[(6,7-dimethoxy-4-quinazolinyl)oxy]phenyl}carbamate]
–	–	< 7.00	16%	COc1cc2nccc(Oc3ccc(NC(=O)OC4CCN(C)CC4)cc3)c2cc1OC [Example 466, 1-Methyl-4-piperidyl N-{4-[(6,7-dimethoxy-4-quinolyl)oxy]phenyl}carbamate]
–	–	< 7.00	8%	COc1cc2nccc(Oc3cc(C)c(NC(=O)OC4CCN(C)CC4)cc3C)c2cc1OC [Example 467, 1-Methyl-4-piperidyl N-{4-[(6,7-dimethoxy-4-quinolyl)oxy]-2,5-dimethylphenyl}carbamate]
–	–	< 7.00	20%	COc1cc2nccc(Oc3ccc(NC(=O)OC4CCN(C)CC4)c(C)c3C)c2cc1OC [Example 468, 1-Methyl-4-piperidyl N-{4-[(6,7-dimethoxy-4-quinolyl)oxy]-2,3-dimethylphenyl}carbamate]
–	–	< 7.00	35%	CCN(C(=O)OCc1ccccc1OC)c1ccc(Oc2ncnc3cc(OC)c(OC)cc23)cc1Cl [Example 485, 2-Methoxybenzyl N-{2-chloro-4-[(6,7-dimethoxy-4-quinazolinyl)oxy]phenyl}-N-ethylcarbamate]
–	–	< 7.00	36%	CCN(C(=O)OCc1ccccc1C)c1ccc(Oc2ncnc3cc(OC)c(OC)cc23)cc1Cl [Example 486, 2-Methylbenzyl N-{2-chloro-4-[(6,7-dimethoxy-4-quinazolinyl)oxy]phenyl}-N-ethylcarbamate]
–	–	< 7.00	31%	CCN(C(=O)OCc1ccccc1Cl)c1ccc(Oc2ncnc3cc(OC)c(OC)cc23)cc1Cl [Example 487, 2-Chlorobenzyl N-{2-chloro-4-[(6,7-dimethoxy-4-quinazolinyl)oxy]phenyl}-N-ethylcarbamate]
–	–	7.01	–	CCCC(CCC)OC(=O)N(CC)c1ccc(Oc2ncnc3cc(OC)c(OC)cc23)cc1Cl [Example 488, 1-Propylbutyl N-{2-chloro-4-[(6,7-dimethoxy-4-quinazolinyl)oxy]phenyl}-N-ethylcarbamate]
–	–	7.41	–	CCCC(CCC)OC(=O)N(C)c1ccc(Oc2ncnc3cc(OC)c(OC)cc23)cc1 [Example 493, 1-Propylbutyl N-{4-[(6,7-dimethoxy-4-quinazolinyl)oxy]phenyl}-N-methylcarbamate]
–	–	7.19	–	C#CCC(CC)OC(=O)N(C)c1ccc(Oc2ncnc3cc(OC)c(OC)cc23)cc1 (stereo not shown) [Example 495, 1-Ethyl-3-butynyl N-{4-[(6,7-dimethoxy-4-quinazolinyl)oxy]phenyl}-N-methylcarbamate]
–	–	7.54	–	COc1cc2nccc(Oc3ccc(NC(=S)NCCN4CCCCC4)c(C)c3C)c2cc1OC [Example 512, N-{4-[(6,7-Dimethoxy-4-quinolyl)oxy]-2,3-dimethylphenyl}-N′-(2-piperidinylethyl)thiourea]

SMILES	pIC50 (Pharmacological Test Example 1)	inhibition at 0.1 µM (figure in parentheses in >100( ))	pIC50	inhibition at 0.1 µM [1]
COc1cc2nccc(Oc3ccc(NC(=O)OC(C#N)c4ccccc4)cc3)c2cc1OC (stereo not shown) [Example 453, Cyano(phenyl)methyl N-{4-[(6,7-dimethoxy-4-quinolyl)oxy]phenyl}carbamate]	–	–	< 7.00	1%
COc1cc2nccc(Oc3cc(C)c(NC(=O)OC(C#N)c4ccccc4)cc3C)c2cc1OC (stereo not shown) [Example 454, Cyano(phenyl)methyl N-{4-[(6,7-dimethoxy-4-quinolyl)oxy]-2,5-dimethylphenyl}carbamate]	–	–	< 7.00	23%
COc1cc2ncnc(Oc3ccc(NC(=O)Oc4ccccc4C#N)cc3)c2cc1OC [Example 456, 2-Cyanophenyl N-{4-[(6,7-dimethoxy-4-quinazolinyl)oxy]phenyl}carbamate]	–	–	< 7.00	21%
COc1cc2nccc(Oc3ccc(NC(=O)Oc4cccc(C#N)c4)cc3)c2cc1OC [Example 457, 3-Cyanophenyl N-{4-[(6,7-dimethoxy-4-quinolyl)oxy]phenyl}carbamate]	–	–	< 7.00	29%
COc1cc2nccc(Oc3cc(C)c(NC(=O)Oc4cccc(C#N)c4)cc3C)c2cc1OC [Example 458, 3-Cyanophenyl N-{4-[(6,7-dimethoxy-4-quinolyl)oxy]-2,5-dimethylphenyl}carbamate]	–	–	< 7.00	18%
COc1cc2nccc(Oc3cc(C)c(NC(=O)Oc4ccc(C#N)cc4)cc3C)c2cc1OC [Example 460, 4-Cyanophenyl N-{4-[(6,7-dimethoxy-4-quinolyl)oxy]-2,5-dimethylphenyl}carbamate]	–	–	< 7.00	15%
COc1cc2nccc(Oc3ccc(NC(=O)Oc4ccc(C#N)cc4)c(C)c3C)c2cc1OC [Example 461, 4-Cyanophenyl N-{4-[(6,7-dimethoxy-4-quinolyl)oxy]-2,3-dimethylphenyl}carbamate]	–	–	7.22	–
